Assay [1] is described as follows: Decrease in c-Myc-p21MAX heterodimer binding to E-box DNA at 50 uM by EMSA method.
Assay [2] can be described thus: Binding affinity to fluorescently tagged c-Myc-p21MAX heterodimer assessed as competitive constant by using fluorescence polarization titration.

`CCc1ccc(/C=C2\SC(=S)NC2=O)cc1` gave a fold change (FC) in assay [1] of 2. Also, in assay [2], the Activity turned out to be 12.

Values taken from ChEMBL document CHEMBL1143307, “Small-molecule perturbation of competing interactions between c-Myc and Max” (Bioorg Med Chem Lett, 2009).
